The test system of series [1] is SH-SY5Y. Nature of the series: Neuroprotective activity against NMDA-induced cell injury in human SH-SY5Y cells assessed as cell viability at 0.05 uM incubated for 6 hrs followed by NMDA treatment for 0.5 hrs and subsequent replacement of fresh medium without compounds by MTT assay relative to control. It is filed as functional. Conditions: time 6.5 hrs, read-out: Activity. On the technique in general: Tetrazolium dyes change colour on reduction, which living cells bring about.

Series [2] relates to SH-SY5Y. Put plainly: Neuroprotective activity against NMDA-induced cell injury in human SH-SY5Y cells assessed as cell viability at 0.5 uM incubated for 6 hrs followed by NMDA treatment for 0.5 hrs and subsequent replacement of fresh medium without compounds by MTT assay relative to control. Type of series: functional. Particulars: time 6.5 hrs, read-out: Activity.
The subject of series [3] is SH-SY5Y. Nature of the series: Neuroprotective activity against NMDA-induced cell injury in human SH-SY5Y cells assessed as cell viability at 5 uM incubated for 6 hrs followed by NMDA treatment for 0.5 hrs and subsequent replacement of fresh medium without compounds by MTT assay relative to control. Type of series: functional. Particulars: time 6.5 hrs, read-out: Activity.

Series [4] addresses Glutamate receptor ionotropic, NMDA 2B (Homo sapiens) (UniProt Q13224). Nature of the series: Antagonist activity against GluN2B NMDAR in human SH-SY5Y cells assessed as reduction in NMDA-induced intracellular influx at 5 uM incubated for 6 hrs followed by replacement of fresh medium without compounds and subsequent NMDA treatment by Fluo-4AM dye based calcium mobilization assay. It is filed as cell-based. Particulars: filed as antagonist.

Series [5] has the same target. Nature of the series: Antagonist activity against GluN2B NMDAR in human SH-SY5Y cells assessed as increase in NMDA-induced downregulation of phosphorylated ERK1/2 at 0.05 to 5 uM incubated for 6 hrs followed by NMDA treatment for 0.5 hrs and subsequent replacement of fresh medium without compounds by Western blot analysis. Type of series: cell-based. Conditions: filed as antagonist, dose 0.05-5 µM, time 6.5 hrs. A general note: Immunoblotting shows a protein as a band on a membrane.

The nature of series [6]: Metabolic stability in human plasma assessed as compound remaining at 2 uM measured immediately by LC-MS/MS analysis. Type of series: ADME, cell-free. Particulars: read-out: Stability.
Series [7] can be described thus: Metabolic stability in human plasma assessed as compound remaining at 2 uM measured after 10 mins by LC-MS/MS analysis. It is filed as ADME, cell-free. Particulars: read-out: Stability.
Series [8] is described as follows: Metabolic stability in human plasma assessed as compound remaining at 2 uM measured after 30 mins by LC-MS/MS analysis. It is filed as ADME, cell-free. Particulars: read-out: Stability.
Series [9] in a line: Metabolic stability in human plasma assessed as compound remaining at 2 uM measured after 60 mins by LC-MS/MS analysis. It is filed as ADME, cell-free. Conditions: read-out: Stability.
Series [10] in a line: Metabolic stability in human plasma assessed as compound remaining at 2 uM measured after 120 mins by LC-MS/MS analysis. Type of series: ADME, cell-free. Particulars: read-out: Stability.
Series [11] is described as follows: Metabolic stability in human plasma assessed as half life at 2 uM by LC-MS/MS analysis. Type of series: ADME, cell-free.
Series [12] in a line: Half life in C57 mouse at 10 mg/kg, po measured for 20 mins by LC-MS/MS analysis. Type of series: ADME, organism-based. Conditions: in vivo.
Series [13] is described as follows: Tmax in C57 mouse at 10 mg/kg, po measured for 20 mins by LC-MS/MS analysis. It is filed as ADME, organism-based. Particulars: in vivo.
Series [14] in a line: Cmax in C57 mouse at 10 mg/kg, po measured for 20 mins by LC-MS/MS analysis. Type of series: ADME, organism-based. Set-up: dose 10 mg/kg, time 20 min, route po. Particulars: in vivo.
Series [15] can be described thus: AUC (0 to t) in C57 mouse at 10 mg/kg, po measured for 20 mins by LC-MS/MS analysis. It is filed as ADME, organism-based. Set-up: time 20 min, dose 10 mg/kg, route po. Conditions: in vivo.
Series [16] can be described thus: AUC (0 to infinity) in C57 mouse at 10 mg/kg, po measured for 20 mins by LC-MS/MS analysis. Type of series: ADME, organism-based. Set-up: dose 10 mg/kg, time 20 min, route po. Particulars: in vivo.
Series [17] is described as follows: MRT (0 to t) in C57 mouse at 10 mg/kg, po measured for 20 mins by LC-MS/MS analysis. Type of series: ADME, organism-based. Conditions: in vivo.
Series [18] is described as follows: MRT (0 to infinity) in C57 mouse at 10 mg/kg, po measured for 20 mins by LC-MS/MS analysis. Conditions: in vivo. Type of series: ADME, organism-based.
The nature of series [19]: Oral bioavailability in C57 mouse at 10 mg/kg measured for 20 mins by LC-MS/MS analysis. Type of series: ADME, organism-based. Particulars: in vivo.
A short description of series [20]: Half life in C57 mouse at 1 mg/kg, iv measured for 20 mins by LC-MS/MS analysis. It is filed as ADME, organism-based. Particulars: in vivo.
Series [21] is described as follows: Tmax in C57 mouse at 1 mg/kg, iv measured for 20 mins by LC-MS/MS analysis. Type of series: ADME, organism-based. Conditions: in vivo.
Series [22] is described as follows: Cmax in C57 mouse at 1 mg/kg, iv measured for 20 mins by LC-MS/MS analysis. On the set-up: dose 1 mg/kg, time 20 min, route iv. Conditions: in vivo. It is filed as ADME, organism-based.
The nature of series [23]: AUC (0 to t) in C57 mouse at 1 mg/kg, iv measured for 20 mins by LC-MS/MS analysis. On the set-up: time 20 min, dose 1 mg/kg, route iv. Conditions: in vivo. Type of series: ADME, organism-based.
The nature of series [24]: AUC (0 to infinity) in C57 mouse at 1 mg/kg, iv measured for 20 mins by LC-MS/MS analysis. On the set-up: dose 1 mg/kg, time 20 min, route iv. Particulars: in vivo. It is filed as ADME, organism-based.
A short description of series [25]: Clearance in C57 mouse at 1 mg/kg, iv measured for 20 mins by LC-MS/MS analysis. It is filed as ADME, organism-based. Conditions: in vivo.
A short description of series [26]: MRT (0 to t) in C57 mouse at 1 mg/kg, iv measured for 20 mins by LC-MS/MS analysis. Type of series: ADME, organism-based. Conditions: in vivo.
A short description of series [27]: MRT (0 to infinity) in C57 mouse at 1 mg/kg, iv measured for 20 mins by LC-MS/MS analysis. Type of series: ADME, organism-based. Conditions: in vivo.
The subject of series [28] is Mus musculus. Put plainly: Neuroprotective activity against ICV-ET1-induced cerebral ischemia injury C57BL/6J mouse model assessed as improvement of spontaneous alternation behavior administered orally daily for 10 days by Y-maze test. Type of series: functional, organism-based. Conditions: dose 20-80 mg/kg, route po, time 10.0 day.
Series [29] concerns Mus musculus. Nature of the series: Neuroprotective activity against ICV-ET1-induced cerebral ischemia injury C57BL/6J mouse model assessed as increase in preferential index at 20 to 80 mg/kg, po administered daily measured on day 11 to 13 by novel object recognition test. Type of series: functional, organism-based. Conditions: dose 20-80 mg/kg, time 11-13 day.
In series [30] the test system is Mus musculus. Put plainly: Neuroprotective activity against ICV-ET1-induced cerebral ischemia injury C57BL/6J mouse model assessed as improvement in escape latency at 20 to 80 mg/kg, po administered daily measured on day 14 to 19 by Morris water maze test. It is filed as functional, organism-based. Particulars: dose 20-80 mg/kg, time 14-19 day.
Series [31] concerns Mus musculus. Nature of the series: Neuroprotective activity against ICV-ET1-induced cerebral ischemia injury C57BL/6J mouse model assessed as improvement in swimming distance at 20 to 80 mg/kg, po administered daily measured on day 14 to 19 by Morris water maze test. It is filed as functional, organism-based. Conditions: dose 20-80 mg/kg, time 14-19 day.

Calls of active or inactive are those of the source. No cut-off for these calls is given here.

Sequence of Glutamate receptor ionotropic, NMDA 2B (Homo sapiens) (Q13224 27-1484 limits assumed): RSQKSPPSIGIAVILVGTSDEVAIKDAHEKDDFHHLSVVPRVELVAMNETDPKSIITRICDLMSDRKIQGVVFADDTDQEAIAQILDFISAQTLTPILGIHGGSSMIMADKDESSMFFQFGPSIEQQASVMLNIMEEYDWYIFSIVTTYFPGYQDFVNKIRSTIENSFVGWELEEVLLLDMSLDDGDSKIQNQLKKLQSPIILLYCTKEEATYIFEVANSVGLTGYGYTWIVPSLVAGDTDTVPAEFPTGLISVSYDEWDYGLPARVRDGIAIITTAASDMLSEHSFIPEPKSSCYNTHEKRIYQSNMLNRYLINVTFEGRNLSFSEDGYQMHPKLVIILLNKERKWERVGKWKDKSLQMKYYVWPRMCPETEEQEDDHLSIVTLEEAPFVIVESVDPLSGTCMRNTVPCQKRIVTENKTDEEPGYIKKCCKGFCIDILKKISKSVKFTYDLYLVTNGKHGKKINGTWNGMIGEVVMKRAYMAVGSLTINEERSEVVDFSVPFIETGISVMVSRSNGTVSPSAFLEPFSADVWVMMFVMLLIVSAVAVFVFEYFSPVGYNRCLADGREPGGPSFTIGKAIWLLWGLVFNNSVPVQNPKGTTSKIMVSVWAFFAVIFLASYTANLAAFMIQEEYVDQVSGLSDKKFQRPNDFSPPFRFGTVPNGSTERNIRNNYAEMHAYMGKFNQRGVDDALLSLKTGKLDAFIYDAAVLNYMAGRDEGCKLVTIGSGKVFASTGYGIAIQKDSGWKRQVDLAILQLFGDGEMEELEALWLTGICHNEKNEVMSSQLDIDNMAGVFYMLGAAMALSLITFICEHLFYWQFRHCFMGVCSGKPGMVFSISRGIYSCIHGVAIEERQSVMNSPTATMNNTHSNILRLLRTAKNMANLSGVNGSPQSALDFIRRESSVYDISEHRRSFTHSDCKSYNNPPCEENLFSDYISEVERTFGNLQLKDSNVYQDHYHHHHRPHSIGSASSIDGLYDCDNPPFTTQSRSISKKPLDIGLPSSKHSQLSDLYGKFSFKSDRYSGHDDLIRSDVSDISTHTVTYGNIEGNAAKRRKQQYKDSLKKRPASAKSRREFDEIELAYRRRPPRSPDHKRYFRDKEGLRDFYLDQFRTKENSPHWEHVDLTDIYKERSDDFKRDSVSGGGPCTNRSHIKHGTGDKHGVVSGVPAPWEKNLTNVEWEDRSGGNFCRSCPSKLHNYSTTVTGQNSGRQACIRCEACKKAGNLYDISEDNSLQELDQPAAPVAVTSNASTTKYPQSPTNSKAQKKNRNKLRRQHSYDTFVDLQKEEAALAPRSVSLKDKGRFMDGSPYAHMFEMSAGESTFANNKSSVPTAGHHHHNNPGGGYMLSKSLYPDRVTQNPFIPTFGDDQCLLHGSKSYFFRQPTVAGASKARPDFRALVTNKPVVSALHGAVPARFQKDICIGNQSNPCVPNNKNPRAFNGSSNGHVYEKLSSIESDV

Turning to `CCCCn1cc(CCNC(=O)/C=C/c2ccc(O)cc2)c2ccccc21`, the viability at 0.05 µM in series [1] is 24.3%. Also, the viability at 0.5 µM in series [2] stood at 24.1%. In series [3], the viability at 5 µM is 19.3%.
Consider `O=C(/C=C/c1ccc(O)cc1)NCCc1cn(CCc2ccccc2)c2ccccc12`, for which, in [1], the viability at 0.05 µM was found to be 25.9%. Besides, the viability at 0.5 µM in [2] is 10.1%. Further, the viability at 5 µM in series [3] came out at 8%.
For `O=C(NCCc1cn(Cc2ccccc2)c2ccccc12)c1ccc(O)cc1`, in series [1], the viability at 0.05 µM worked out at 31.7%. Moreover, in series [2], the viability at 0.5 µM stood at 54.3%. Moreover, in [3], the viability at 5 µM was determined as 51.4%.
Consider `CCCn1cc(CCNC(=O)/C=C/c2ccc(O)cc2)c2ccccc21`, for which the viability at 0.05 µM in series [1] is 17.6%. The viability at 0.5 µM in series [2] stood at 13.5%. Further, the viability at 5 µM in series [3] turned out to be 25.1%.
What is called half-life is the time in which the quantity being followed falls by half. As usually defined, the Tmax is the time at which the peak concentration occurs. The term Cmax denotes the maximum level reached in the sampled fluid or tissue. Usually AUC(0-t) stands for the area under the concentration-time curve up to a stated or last time point. The term AUC(0-inf) denotes the area under the concentration-time curve extrapolated to infinity. Low readings indicate less exposure, high ones more exposure. A word on the MRT last: it is the average time that molecules of a dose stay in the body. What is called MRT inf is a mean duration of stay, worked out from the concentration-time curve. The bioavailability is the share of a dose that reaches the circulation, judged against a reference dose that is usually intravenous. Read a low bioavailability as poor availability. By clearance is commonly meant the rate of elimination divided by the concentration. High values mean efficient removal, low ones inefficient removal. With `O=C(/C=C/c1ccc(O)cc1)NCCc1cn(Cc2cccc(Br)c2)c2ccccc12`, in series [1], the viability at 0.05 µM turned out to be 35.7%. Moreover, the viability at 0.5 µM in [2] was 48.8%. The viability at 5 µM in series [3] is 55.8%. The result in [4], in series [5], in series [29], in [30] and in series [31] was Active. For the same compound, the remaining at 0 min, 2 µM in series [6] was found to be 100%. The remaining at 10 min, 2 µM in series [7] worked out at 97.5%. Moreover, the remaining at 0.5 h, 2 µM in series [8] was found to be 98.8%. Also, in series [9], the remaining at 1 h, 2 µM was determined as 100%. The remaining at 2 h, 2 µM in series [10] is 100%. In addition, in series [11], the half-life at 2 µM is over 289 min. In addition, the half-life in series [12] is 66.6 min; in series [20], 40.2 min. Moreover, the Tmax in [13] came to 30 min; in series [21], 4.98 min. The maximum concentration (Cmax) in [14] is 182 ng/mL; in [22] it was 1910 ng/mL. Moreover, the AUC(0-t) at 20 min was 261 ng·h/mL in series [15] and 860 ng·h/mL in [23]. Moreover, the AUC(0-inf) in series [16] worked out at 269 ng·h/mL; in [24] it was 863 ng·h/mL. Further, the MRT last at 20 min was 74.4 min in [17] and 26.4 min in series [26]. In addition, the figures for the MRT inf in [18] and in [27] were 85.2 min and 27 min, respectively. In [19], this compound showed a bioavailability of 3.12%. Also, the clearance in series [25] came out at 20.4 mL/min/kg. The Activity result in [28] was “Dose-Dependent Effect”.
Turning to `O=C(Cc1ccc(O)cc1)NCCc1cn(Cc2ccccc2)c2ccccc12`, the viability at 0.05 µM in series [1] came to 21.1%. Besides, in [2], the viability at 0.5 µM came out at 42.2%. The viability at 5 µM in series [3] is 41%.
In the case of `O=C(/C=C/c1ccc(O)cc1)NCCc1cn(Cc2ccc(F)cc2)c2ccccc12`, in [1], the viability at 0.05 µM turned out to be 35.8%. Further, in [2], the viability at 0.5 µM is 49.8%. For the same compound, in series [3], the viability at 5 µM amounted to 20.8%.
With `O=C(NCCc1cn(Cc2ccccc2)c2ccccc12)c1ccc(O)c(O)c1`, the viability at 0.05 µM in [1] was found to be 29.4%. The viability at 0.5 µM in series [2] worked out at 32.1%. Besides, the viability at 5 µM in [3] amounted to 44.9%.
For `O=C(/C=C/c1ccccc1)NCCc1cn(Cc2ccccc2)c2ccccc12`, in that order: 30.4%, 8.4% and 24.7%.
For `O=C(/C=C/c1ccc(O)cc1)NCCc1cn(Cc2cccc(Cl)c2)c2ccccc12`, in that order: 32.2%, 38.8% and 25.2%.
For `O=C(CCc1ccc(O)cc1)NCCc1cn(Cc2ccccc2)c2ccccc12`, in that order: 45.3%, 50.9% and 52.1%.
For `O=C(/C=C/c1ccc(O)cc1)NCCc1cn(Cc2ccccc2)c2ccccc12`, in [1], the viability at 0.05 µM is 33%. In addition, the viability at 0.5 µM in [2] is 42.8%. In addition, in series [3], the viability at 5 µM stood at 52.8%.
Taken in the same sequence, the figures for `O=C(/C=C/c1ccc(O)cc1)NCCc1cn(Cc2ccc(Cl)cc2)c2ccccc12` were 31.9%, 22.5% and 21.7%.

Source of the values: ChEMBL document CHEMBL5360573, “Discovery of novel tryptamine derivatives as GluN2B subunit-containing NMDA receptor antagonists via pharmacophore-merging strategy with orally available therapeutic effect of cerebral ischemia” (Eur J Med Chem, 2023).
